Source: ChEMBL document CHEMBL1146179, “Desosamine in multicomponent reactions” (Bioorg Med Chem Lett, 2006)
Calls of active or inactive are those of the source.

What was measured:
Format in all cases: functional, organism-based
[1] = tested on: Escherichia coli; assay: Antibacterial activity against Escherichia coli at 400 mM
[2] = tested on: Bacillus subtilis; assay: Antibacterial activity against Bacillus subtilis at 50 mM
[3] = tested on: Escherichia coli; assay: Antibacterial activity against Escherichia coli at 100 mM
[4] = tested on: Candida albicans; assay: Antifungal activity against Candida albicans ATCC 10231 at 400 mM
[5] = tested on: Staphylococcus aureus; assay: Antibacterial activity against Staphylococcus aureus ATCC 6538 at 50 mM
[6] = tested on: Bacillus subtilis; assay: Antibacterial activity against Bacillus subtilis at 100 mM
[7] = tested on: Escherichia coli; assay: Antibacterial activity against Escherichia coli at 50 mM
[8] = tested on: Candida albicans; assay: Antifungal activity against Candida albicans ATCC 10231 at 50 mM
[9] = tested on: Bacillus subtilis; assay: Antibacterial activity against Bacillus subtilis at 400 mM
[10] = tested on: Candida albicans; assay: Antifungal activity against Candida albicans ATCC 10231 at 100 mM
[11] = tested on: Staphylococcus aureus; assay: Antibacterial activity against Staphylococcus aureus ATCC 6538 at 400 mM
[12] = tested on: Staphylococcus aureus; assay: Antibacterial activity against Staphylococcus aureus ATCC 6538 at 100 mM

Measured: Activity

C[C@@H]1C[C@H](N(C)C)[C@@H](O)C(NCc2nnnn2C(C)(C)C)O1 (some centres undefined)
inactive: [1] | [2] | [3] | [4] | [5] | [6] | [7] | [8] | [9] | [10] | [11] | [12]

COC(=O)Cn1nnnc1C(NC1O[C@H](C)C[C@H](N(C)C)[C@H]1O)c1ccccc1 (some centres undefined)
inactive: [1] | [2] | [3] | [4] | [5] | [6] | [7] | [8] | [9] | [10] | [11] | [12]
